# Patent publication US20250127889A1, “IMMUNOSTIMULATORY COMPOSITION” (Reiko SHINKURA, priority 2021, published 2025)
# B1: BAFF: B-cell activating factor, mimics interaction with DCs (protein, UniProt Q9WU72 127-309, looked up)
# Tumor necrosis factor ligand …: AFQGPEETEQDVDLSAPPAPCLPGCRHSQHDDNGMNLRNIIQDCLQLIADSDTPTIRKGTYTFVPWLLSFKRGNALEEKENKIVVRQTGYFFIYSQVLYTDPIFAMGHVIQRKKVHVFGDELSLVTLFRCIQNMPKTLPNNSCYSAGIARLEEGDEIQLAIPRENAQISRNGDDTFFGALKLL
# What was measured:
# [1] = system: PP GC; experiment: In vivo imaging of transplanted iGB cells induced by pre-stimulation (entry into PP GC); parameters: species or system Balb/c mice; settings: splenic naive B cells pre-stimulated 3 days, cultured on 40LB cells 4 days, injected i.v.
# Procedure: Then, 1×10^5 B220^+ B cells were isolated from the stimulated cells, and subsequently, the cells were seeded onto 40LB feeder cells supplemented with rIL-4 (1 ng/ml; BioLegend, Inc.) to induce iGB cells. As a control group, splenic naive B cells not subjected to stimulation were seeded onto the 40LB feeder cells supplemented with rIL-4 (1 ng/ml; BioLegend, Inc.). After culturing for 4 days, naive B-40LB cells, pam3CSK4-40LB cells, E. coli-40LB, IgM-40LB, and CpG-40LB cells of 3×10^5 iGB cells (B220^+) were isolated, labeled with CellTracker Orange CMTMR fluorescent dye (Invitrogen Corporation), and then separately injected intravenously into mice (Balb/c, 8 to 12 weeks old) together with 10 μg of AF488 anti-mouse MAdCAM-1 (BioLegend, Inc. mAb MECA-367) to identify HEV. Under anesthesia, 1 μg of AF647 anti-mouse IgA (Southern Biotech) was directly injected into the PPs of the same mice into which iGB cells were transferred, to stain the IgA^+ cells for GC identification. Localization of intravenously injected labeled iGB cells was observed using a microscope LSM880 (Carl Zeiss AG) and ZEN 2009 (Carl Zeiss AG) analysis software.
# [2] = system: splenic naive B cells; experiment: B cell proliferation / number after in vitro stimulation; assay type: cell-based, Balb/c mice; settings: compared to B cells stimulated with anti-IgM, anti-CD40, BAFF, poly I:C, flagellin, imiquimod
# Procedure: (§1) Splenic B cells were negatively sorted from the spleens of 8-week-old Balb/c mice using a B cell isolation kit (Miltenyi Biotec B.V. & Co. KG). The splenic B cells (concentration: 5×10^5/ml) were cultured in RPMI1640 medium, and 13 types of independent stimuli were each applied thereto. Anti-mouse IgM (15 μg/ml; Jackson ImmunoResearch Laboratories Inc.) • 2. Anti-mouse-CD40 (HM40-3, 500 ng/ml; manufactured by BioLegend, Inc.) • 3. BAFF (50 ng/ml; BioLegend, Inc.) • 4. Pam3CSK4 (1 μg/ml, InvivoGen) • 5. Poly I:C (25 ng/ml, InvivoGen) • 6. LPS (50 ng/ml, Sigma-Aldrich, Inc.) • 7. Flagellin (20 ng/ml, Sigma-Aldrich, Inc.) • 8. Imiquimod (R837, 5 ng/ml; InvivoGen) • 9. CpG (20 μg/ml, GeneDsign Inc.) • 10. […] Heat-killed S. enterica (10^8 CFU/ml) • 12. Heat-killed B. bifidum (10^7 CFU/ml) • 13. Heat-killed B. breve (10^7 CFU/ml)
# [3] = system: PNAhighB220+ PP GC B cells; experiment: Oral administration of heat-killed bacteria or pam3CSK4 to WT mice, PP GC B cells after 2 days; settings: within 2 days
# Procedure: Mice orally administered with 100 μl of PBS were prepared as controls. 2 days later, the PPs of these mice were excised, and B cells in the GCs were analyzed using Spectral Cell Analyzer SA3800 (Sony Biotechnology Inc.), as described above.
# [4] = system: OVA-specific IgA; experiment: Oral immunization with OVA plus adjuvant, ELISA of OVA-specific IgA in stools; assay type: in vivo, mice; settings: OVA 1 mg with or without adjuvant on Day 0 and Day 16, stools Day 21
# Procedure: Stools were collected on Day 21, and OVA-specific antibody measurement was performed by enzyme-linked immunosorbent assay (ELISA).
# The stools were suspended in 10-times weight/volume (w/v) PBS. After performing centrifugation (8,000 g, 15 minutes), the supernatant was collected as a fecal extract. A plate was precoated with 1 mg/ml OVA overnight, followed by blocking with PBS containing 1% (w/v) bovine serum albumin at room temperature for 1 hour. Then, a serially diluted fecal extract was added to the plate, and the plate was incubated at room temperature for 1 hour. Relative avidity of IgA was detected using alkaline phosphatase-labeled goat anti-mouse IgA (manufactured by Southern Biotech). After incubation overnight at 4° C., optical density (OD) values at 405 nm were measured using TriStar Multimode Reader LB 942 (manufactured by Berthold Technologies GmbH & Co. KG).
# [5] = system: itgam (CD11b); experiment: qPCR analysis of itgam in B cells after stimulation; assay type: cell-based, Balb/c mice
# Procedure: About 1×10^4 PP GC B cells (PNA^hiB220^+ cells) and about 1×10^4 non-GC PP B cells (PNA^loB220^+) were each sorted. RNAs were extracted from the isolated cells using NucleoSpin RNA XS (Takara Bio Inc.), and cDNAs were synthesized using GoScript (registered trademark) Reverse Transcriptase (Promega Corporation). Using KAPA SYBR (registered trademark) FAST qPCR Master Mix (2×) Kit (Kapa Biosystems, Inc.), real-time PCR was performed in triplicate on an optical 384-well PCR plate (F. Hoffmann-La Roche Ltd) using LightCycler 480 (F. Hoffmann-La Roche Ltd). Gene expression levels were normalized to the expression level of the housekeeping gene β-actin. The following primers were used for the analysis.
# Splenic B cells were negatively sorted from the spleens of 8-week-old Balb/c mice using a B cell isolation kit (Miltenyi Biotec B.V. & Co. KG). The splenic B cells (concentration: 5×10^5/ml) were cultured in RPMI1640 medium, and 13 types of independent stimuli were each applied thereto. Anti-mouse IgM (15 μg/ml; Jackson ImmunoResearch Laboratories Inc.) • 2. Anti-mouse-CD40 (HM40-3, 500 ng/ml; manufactured by BioLegend, Inc.) • 3. BAFF (50 ng/ml; BioLegend, Inc.) • 4. Pam3CSK4 (1 μg/ml, InvivoGen) • 5. Poly I:C (25 ng/ml, InvivoGen) • 6. LPS (50 ng/ml, Sigma-Aldrich, Inc.) • 7. Flagellin (20 ng/ml, Sigma-Aldrich, Inc.) • 8. Imiquimod (R837, 5 ng/ml; InvivoGen) • 9. […]
# [6] = system: CD11b expression in splenic naive B cells; experiment: Stimulation of splenic naive B cells in vitro, CD11b expression by flow cytometry; assay type: cell-based, Balb/c mice
# Procedure: as §1
# For MDP stimulation, purified splenic B cells (5×10^5/ml) were cultured in RPMI1640 medium supplemented with N-acetylmuramyl-L-alanyl-D-isoglutamine hydrate (1 μg/ml; Sigma-Aldrich Inc.).
# [7] = system: CD11b expression in splenic B cells; experiment: CD11b expression in stimulated splenic B cells in the presence of TLR and NOD2 inhibitors; assay type: cell-based, Balb/c mice
# [8] = system: TNF-α; experiment: Oral adjuvant with OVA as antigen, serum TNF-α ELISA; assay type: in vivo, C57BL/6 mice; settings: oral immunization with OVA 1 mg 3 times every 2 weeks, blood on second day after third immunization
# Procedure: Serum TNF-α levels were measured in accordance with the protocol of mouse TNF-α ELISA kit (Invitrogen Corporation, BMS607-3).
molecule,measurement,setting,value
pam3CSK4,"entry into GC of iGB cells stimulated in advance, after intravenous injection into mice",[1],most of the cells entered GC
same,number of B cells after 3 days of culturing,[2],significantly increased
same,number of PP GC B cells,[3],increased
same,proportion of PP GC B cells,[3],increased
same,OVA-specific IgA in the stools,[4],increased
same,expression of itgam (CD11b) in B cells,[5],increased
same,proportion of CD11b+ B cells in stimulated B cells,"[6]; splenic naive B cells, 3 days stimulation",27.6%
CN(CCc1nc2ccccc2n1CC(=O)Nc1ccc2c(c1)CCC2)C(=O)c1ccccc1 [NOD2 inhibitor],CD11b expression in B cells stimulated with pam3CSK4 and heat-killed E. coli with inhibitor,[7]; NOD2 inhibitor 30 μM,strongly suppressed
CCOC(=O)C1=CCCC[C@H]1S(=O)(=O)Nc1ccc(F)cc1Cl [TLR4 inhibitor],proportion of CD11b+ B cells stimulated with pam3CSK4 and heat-killed E. coli when inhibitor was used,"[7]; inhibitor 1 μM, pam3CSK4 1 μg/ml, heat-killed E. coli 10^7 CFU/ml",did not increase
N-acetylmuramyl-L-alanyl-D-isoglutamine hydrate [MDP],induction of CD11b expression by NOD2 ligand,"[6]; purified splenic B cells, MDP 1 μg/ml",did not induce
CpG-ODN1826,serum TNFα concentration,[8],cause increase
"OVA: ovalbumin, orally administered model antigen",OVA-specific IgA in the stools,[4],did not increase
B1,induction of CD11b expression in naive splenic B cells,"[6]; in vitro stimulation, 3 days culture, flow cytometry",did not induce
